Experimental data from patent US20150099753A1, “FORM 5 POLYMORPH OF 7-(TERT-BUTYL-D9)-3-(2,5-DIFLUOROPHENYL)-6-((1-METHYL-1H-1,2,4-TRIAZOL-5-YL)METHOXY)-[1,2,4]TRIAZOLO[4,3-B]PYRIDAZINE” (Concert Pharmaceuticals Inc., priority 2012, published 2015).

Assays:
Type in all cases: physicochemical
[1] = Relative thermodynamic stability of non-solvated forms (ripening studies); conditions: temperatures from between 22° C. and 70° C.
Description: Excess Form 1 was combined with EtOH (1.8 mL) and the suspension was stirred at 57° C. for 6 hrs. The suspension was allowed to settle, and the saturated EtOH solution was isolated, and added into a 2-mL vial containing a mixture of Forms 1, Form 3, and Form 4 ([…] of each). The suspension was stirred at 57° C. for 24 hrs. The solid was isolated on a Büchner funnel and air-dried for ˜6 hrs.
Once the above preparation of Form 5 was obtained, additional Form 5 was produced as follows. Form 1 (100 mg) was weighed into a […] 4-mL vial containing a stir-bar. EtOH (4-mL) was added and the suspension was stirred for 12 hrs and at 25° C. The suspension was filtered and the filtrate (1.8 mL) was added into a 2-mail vial containing equivalent amounts (10 mg) of Forms 3, 4, and 5. An aliquot of the suspension was immediately sampled; the solid was isolated by filtration, and analyzed by PXRD to verify the crystal-form. The suspension was stirred at 25° C. for an additional 24 hrs. A second aliquot was sampled; the solid was isolated by filtration, and analyzed to verify the crystal-form. […]
Once Form 5 crystals were isolated they were used to prepare additional Form 5 as follows. […] The solid was isolated on a Büchner funnel and air-dried for ˜6 hrs and determined to be Form 5.

[2] = Physical (crystal form) stability on exposure to ambient conditions or relative humidity
[3] = Dynamic Vapor Sorption (DVS) analysis; conditions: DVS at 25° C., 0% RH to 90% RH cycles
Description: Dynamic Vapor Sorption (DVS). DVS experiments were conducted on a Surface Measurement Systems DVS-HT at 25° C. The instrument was operated in step mode and the relative humidity was increased in 10% RH increments from 40% RH to 90% RH, then decreased from 90% RH to 0% RH, then increased from 0% RH to 90% RH, then decreased from 90% RH to 0% RH. An extra step at 75% RH was included in each cycle. The mass equilibrium criterion was set at 0.005% change in mass over time (dm/dt) prior to each humidity level. A minimum step time of 10 minutes and a maximum step time of 240 minutes were specified.

[4] = Crystal form stability when suspended and stirred in MeOH:water; conditions: stirred for 72 hours at ambient temperature

In the case of [2H]C([2H])([2H])C(c1cc2nnc(-c3cc(F)ccc3F)n2nc1OCc1ncnn1C)(C([2H])([2H])[2H])C([2H])([2H])[2H] [Form 5, 7-(tert-Butyl-d9)-3-(2,5-difluorophenyl)-6-((1-methyl-1H-1,2,4-triazol-5-yl)methoxy)-[1,2,4]triazolo[4,3-b]pyridazine], the “thermodynamic stability relative to other non-solvated forms (Forms 1, 3 and 4)” value [1] is reported as “more thermodynamically stable than any of the other non-solvated forms”, the physical stability ([2]; exposed to 75% relative humidity for 5 days) is reported as “physically stable” and the physical stability ([2]; exposed to 97% RH for 5 days at room temperature) is reported as “physically unstable and partially converts to hydrated crystal Form 2”. The physical stability ([2]; exposed to ambient conditions for at least 7 days) was “physically stable”, the “DVS weight gain (hygroscopicity; non-hygroscopic)” value [3] was under 0.4 % wt. gain and the “crystal form conversion in suspension” value ([4]; suspended in MeOH:water 95:5% volume) was “converts to Form 2”. For the same compound, the “crystal form conversion in suspension” value ([4]; suspended in MeOH:water 98:2% volume) was “converts to Form 2”.
